From US9084794B2, “Fatty acid synthase inhibitors” (GlaxoSmithKline Intellectual Property (No. 2) Limited, priority 2011, dated 2015)

biological target: FAS (Homo sapiens, UniProt P49327); experiment: FAS activity inhibition (Assay #1 residual NADPH/resazurin or Assay #2 CoA/CPM thio-reactive dye); format: biochemical; settings: measured through one of the two assays, at least one experiment or the average of multiple experiments
Description: FAS activity was measured through one of the two following assays.
Inhibition of FAS activity can be measured based on the detection of residual NADPH substrate after the FAS assay is quenched. This assay is run as a 10 μL endpoint assay in 384-well format, where the reaction contains 20 μM malonyl-CoA, 2 μM acetyl-CoA, 30 μM NADPH and 40 nM FAS in 50 mM sodium phosphate, pH 7.0. The assay is run by sequentially dispensing 5 μl of a malonyl-CoA solution, then enzyme solution Containing the acetyl-CoA, and NADPH) into a black, low volume assay plate (Greiner 784076) pre-dispensed with 100 nL compound solutions in DMSO. The reaction is incubated at ambient temperature for 60 minutes, then quenched with 5 μL, of a developing solution composed of 90 μM resazurin, 0.3 IU/ml diaphorase in 50 mM sodium phosphate, pH 7.0. The developed reaction is read on a Molecular Devices Analyst or Acquest (or equivalent) plate reader using a 530 nm excitation wavelength filter, a 580 nm emission filter, and 561 nm dichroic filter. The test compounds are prepared in neat DMSO at a concentration of 10 mM. For inhibition curves, compounds are diluted using a three fold serial dilution and tested at 11 concentrations (e.g. 25 μM-0.42 nM). Curves are analysed using ActivityBase and XLfit, and results are expressed as pIC50 values.
Inhibition of FAS can also be quantified based on the detection of the CoA products with a thio-reactive coumarin dye. This assay is run as a […] assay in 384-well format, where the reaction contains 20 μM malonyl-CoA, 20 μM acetyl-CoA, 40 μM NADPH and 2 nM FAS in 50 mM sodium phosphate, pH 7.0, and 0.04% Tween-20. The assay is run by adding […] enzyme solution to a black, low volume assay plate (Greiner 784076) pre-dispensed with 100 nl compound solutions in DMSO. After 30 minutes, 5 μL substrate is added, and the reaction incubated at ambient temperature for an additional 60 minutes. The reaction is then quenched with 100 μL of 6M guanidine-HCl containing 50 μM CPM (7-diethylamino-3-(4′-maleimidylphenyl)-4-methylcoumarin CPM; thio-reactive dye), and incubated for 30 minutes. The plate is read on an Envision (PerkinElmer) or equivalent plate reader using a 380 nm excitation wavelength filter, and a 486 nm emission filter. Data fitting and compound preparations are done as described above.

Sequence of FAS (P49327 whole entry): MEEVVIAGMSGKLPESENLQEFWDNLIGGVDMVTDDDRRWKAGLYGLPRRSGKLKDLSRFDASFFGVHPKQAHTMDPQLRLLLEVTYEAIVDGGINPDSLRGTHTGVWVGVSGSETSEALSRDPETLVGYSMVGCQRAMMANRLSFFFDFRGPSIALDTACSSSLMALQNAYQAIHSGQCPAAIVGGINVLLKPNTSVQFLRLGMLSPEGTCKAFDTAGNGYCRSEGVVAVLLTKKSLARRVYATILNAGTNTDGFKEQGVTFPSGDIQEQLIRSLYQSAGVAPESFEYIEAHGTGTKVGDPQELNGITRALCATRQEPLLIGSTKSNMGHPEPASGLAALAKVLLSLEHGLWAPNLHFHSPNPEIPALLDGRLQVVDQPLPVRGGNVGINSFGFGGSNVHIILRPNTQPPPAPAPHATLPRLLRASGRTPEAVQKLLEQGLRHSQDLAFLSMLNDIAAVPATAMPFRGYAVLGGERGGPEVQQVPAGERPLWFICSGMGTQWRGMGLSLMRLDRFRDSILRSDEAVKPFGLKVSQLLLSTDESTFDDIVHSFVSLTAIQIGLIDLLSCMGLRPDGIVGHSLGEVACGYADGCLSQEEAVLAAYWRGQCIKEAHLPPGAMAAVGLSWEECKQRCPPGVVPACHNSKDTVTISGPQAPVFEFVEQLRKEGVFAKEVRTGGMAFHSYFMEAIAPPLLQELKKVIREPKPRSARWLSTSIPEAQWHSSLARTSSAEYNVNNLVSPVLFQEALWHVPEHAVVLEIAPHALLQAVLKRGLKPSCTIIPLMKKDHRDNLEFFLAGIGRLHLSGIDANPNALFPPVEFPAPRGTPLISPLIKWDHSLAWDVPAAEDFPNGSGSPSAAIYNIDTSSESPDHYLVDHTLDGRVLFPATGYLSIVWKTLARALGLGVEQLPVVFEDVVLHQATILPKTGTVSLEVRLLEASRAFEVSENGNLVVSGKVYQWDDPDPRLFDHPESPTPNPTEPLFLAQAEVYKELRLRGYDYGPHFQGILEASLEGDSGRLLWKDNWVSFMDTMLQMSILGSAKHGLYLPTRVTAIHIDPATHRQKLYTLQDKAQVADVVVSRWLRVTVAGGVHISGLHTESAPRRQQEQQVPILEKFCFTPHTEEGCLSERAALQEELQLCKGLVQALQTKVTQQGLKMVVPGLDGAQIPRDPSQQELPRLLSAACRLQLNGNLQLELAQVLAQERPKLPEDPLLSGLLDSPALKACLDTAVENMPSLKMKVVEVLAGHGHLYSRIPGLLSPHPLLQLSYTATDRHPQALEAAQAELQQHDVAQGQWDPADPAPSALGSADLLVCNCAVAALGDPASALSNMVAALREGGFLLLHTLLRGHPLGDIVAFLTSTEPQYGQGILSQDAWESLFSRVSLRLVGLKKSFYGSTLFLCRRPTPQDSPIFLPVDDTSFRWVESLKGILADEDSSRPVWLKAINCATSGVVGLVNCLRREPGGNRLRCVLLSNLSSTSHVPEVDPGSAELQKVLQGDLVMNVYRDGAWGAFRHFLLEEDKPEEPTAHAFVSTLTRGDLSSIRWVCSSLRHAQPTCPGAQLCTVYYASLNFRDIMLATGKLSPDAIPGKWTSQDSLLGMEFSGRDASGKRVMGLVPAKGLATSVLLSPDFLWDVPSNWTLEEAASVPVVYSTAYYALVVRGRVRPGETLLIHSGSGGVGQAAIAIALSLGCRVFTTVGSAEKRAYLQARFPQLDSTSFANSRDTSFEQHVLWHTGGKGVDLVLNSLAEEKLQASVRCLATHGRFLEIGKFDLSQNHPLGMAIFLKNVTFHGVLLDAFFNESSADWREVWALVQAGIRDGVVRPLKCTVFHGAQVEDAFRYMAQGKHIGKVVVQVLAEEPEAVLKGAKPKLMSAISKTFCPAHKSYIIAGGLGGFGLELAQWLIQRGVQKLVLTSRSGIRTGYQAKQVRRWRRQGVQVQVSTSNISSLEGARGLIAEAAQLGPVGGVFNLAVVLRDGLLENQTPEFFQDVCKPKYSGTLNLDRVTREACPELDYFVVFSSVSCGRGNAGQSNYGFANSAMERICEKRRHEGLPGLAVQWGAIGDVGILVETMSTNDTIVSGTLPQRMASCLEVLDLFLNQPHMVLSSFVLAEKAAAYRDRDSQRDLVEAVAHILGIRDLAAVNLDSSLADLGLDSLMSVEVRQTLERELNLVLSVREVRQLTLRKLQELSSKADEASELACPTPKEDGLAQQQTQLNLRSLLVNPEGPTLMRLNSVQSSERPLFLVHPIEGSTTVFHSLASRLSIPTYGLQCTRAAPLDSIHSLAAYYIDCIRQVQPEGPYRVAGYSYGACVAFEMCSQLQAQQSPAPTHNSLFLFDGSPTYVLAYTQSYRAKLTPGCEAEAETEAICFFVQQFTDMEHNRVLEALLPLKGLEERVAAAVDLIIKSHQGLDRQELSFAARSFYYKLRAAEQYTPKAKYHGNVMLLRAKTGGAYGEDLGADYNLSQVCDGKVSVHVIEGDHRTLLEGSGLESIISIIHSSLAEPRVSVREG

IC50 | Structure (SMILES)
20 nM | O=C1COC2(CCN(C(CO)c3ccc(-c4ccc5cccnc5c4)cc3)CC2)CN1C1CC1 (racemic) [Example 22, 4-cyclopropyl-9-(2-hydroxy-1-(4-(quinolin-7-yl)phenyl)ethyl)-1-oxa-4,9-diazaspiro[5.5]undecan-3-one]
3 nM | NC(=O)C(c1ccc(-c2ccc3cccnc3c2)cc1F)N1CCC2(CC1)CN(C1CC1)C(=O)CO2 (single isomer, unassigned; (+)) [Example 9, (+)-2-(4-cyclopropyl-3-oxo-1-oxa-4,9-diazaspiro[5.5]undec-9-yl)-2-[2-fluoro-4-(7-quinolinyl)phenyl]acetamide]
1 nM | NC(=O)C(c1c(F)cc(-c2ccc3cccnc3c2)cc1F)N1CCC2(CC1)CN(C1CC1)C(=O)CO2 (single isomer, unassigned; (+)) [Example 73, (+)-2-(4-cyclopropyl-3-oxo-1-oxa-4,9-diazaspiro[5.5]undecan-9-yl)-2-(2,6-difluoro-4-(quinolin-7-yl)phenyl)acetamide]
3 nM | NC(=O)C(c1ccc(-c2ccc3cccnc3c2)cc1F)N1CCC2(CC1)CN(C1(CO)CC1)C(=O)CO2 (single isomer, unassigned; (-)) [Example 30, (−)-2-(2-fluoro-4-(quinolin-7-yl)phenyl)-2-(4-(1-(hydroxymethyl)cyclopropyl)-3-oxo-1-oxa-4,9-diazaspiro[5.5]undecan-9-yl)acetamide]
4 nM | COc1c(-c2ccc(C(C(N)=O)N3CCC4(CC3)CN(C3CC3)C(=O)CO4)c(F)c2)ccc2cccnc12 (single isomer, unassigned; (-)) [Example 78, (−)-2-(4-cyclopropyl-3-oxo-1-oxa-4,9-diazaspiro[5.5]undecan-9-yl)-2-(2-fluoro-4-(8-methoxyquinolin-7-yl)phenyl)acetamide]
501 nM | O=C(O)CC(c1ccc(-c2ccc3cccnc3c2)cc1)N1CCC2(CC1)CN(C1CC1)C(=O)CO2 (centres unmarked) [Example 6, 3-(4-cyclopropyl-3-oxo-1-oxa-4,9-diazaspiro[5.5]undecan-9-yl)-3-(4-(quinolin-7-yl)phenyl)propanoic acid]
50 nM | CC(c1ccc(-c2ccc3cccnc3c2)cc1)N1CCC2(CC1)CN(C1CC1)C(=O)CO2 (centres unmarked) [Example 13, 4-cyclopropyl-9-(1-(4-(quinolin-7-yl)phenyl)ethyl)-1-oxa-4,9-diazaspiro[5.5]undecan-3-one]
200 nM | COc1ccc(-c2ccc(C(C(N)=O)N3CCC4(CC3)CN(C3CC3)C(=O)CO4)c(F)c2)cc1 (centres unmarked) [Example 33, 2-(4-cyclopropyl-3-oxo-1-oxa-4,9-diazaspiro[5.5]undecan-9-yl)-2-(3-fluoro-4′-methoxy-[1,1′-biphenyl]-4-yl)acetamide]
